Broadly, the MIC is the least concentration at which growth counts as inhibited.

This is an account of results in ChEMBL document CHEMBL1649544, “Novel ABC transporter gene, vga(C), located on a multiresistance plasmid from a porcine methicillin-resistant Staphylococcus aureus ST398 strain” (2009).

Holding throughout (format): functional
The test system of assay [1] is Staphylococcus aureus. Kind of assay: Antibacterial activity against Staphylococcus aureus RN4220 harboring aadD, tet(L), dfrK and vga(C) gene by CLSI method.
The test system of assay [2] is Staphylococcus aureus. Briefly: Antibacterial activity against Staphylococcus aureus RN4220 harboring tet(L), dfrK gene by CLSI method.
In assay [3] the test system is Staphylococcus aureus. Briefly: Antibacterial activity against Staphylococcus aureus RN4220 harboring aadD and tet(L) gene by CLSI method.
In assay [4] the test system is Staphylococcus aureus. Kind of assay: Antibacterial activity against Staphylococcus aureus RN4220 by CLSI method.

Molecules are shown by their SMILES. Converted amounts (≈) assume the structure as drawn.

For `CCC[C@@H]1C[C@@H](C(=O)N[C@@H]([C@H]2O[C@H](SC)[C@H](O)[C@@H](O)[C@H]2O)[C@@H](C)O)N(C)C1` [LINCOMYCIN], the minimal inhibitory concentration (MIC) against Staphylococcus aureus [1] was 64 µg/mL (≈ 157 µM); in the assay with Staphylococcus aureus [2], 1 µg/mL (≈ 2.46 µM); against Staphylococcus aureus [3] it was 1 µg/mL (≈ 2.46 µM); against Staphylococcus aureus [4], 1 µg/mL (≈ 2.46 µM).
Consider `CC[C@H]1OC(=O)[C@H](C)[C@@H](O[C@H]2C[C@@](C)(OC)[C@@H](O)[C@H](C)O2)[C@H](C)[C@@H](O[C@@H]2O[C@H](C)C[C@H](N(C)C)[C@H]2O)[C@](C)(O)C[C@@H](C)C(=O)[C@H](C)[C@@H](O)[C@]1(C)O` [ERYTHROMYCIN], for which the MIC against Staphylococcus aureus [1], in the assay with Staphylococcus aureus [2], in the assay on Staphylococcus aureus [3] and in the assay on Staphylococcus aureus [4] was 0.25 µg/mL (≈ 0.341 µM) in each case.
In the case of `NC[C@H]1O[C@H](O[C@H]2[C@H](O)[C@@H](O[C@H]3O[C@H](CO)[C@@H](O)[C@H](N)[C@H]3O)[C@H](N)C[C@@H]2N)[C@H](O)[C@@H](O)[C@@H]1O` [KANAMYCIN], the MIC was 32 µg/mL (≈ 66 µM) against Staphylococcus aureus [1], 4 µg/mL (≈ 8.26 µM) in the assay with Staphylococcus aureus [2], 32 µg/mL (≈ 66 µM) in the assay on Staphylococcus aureus [3] and 4 µg/mL (≈ 8.26 µM) with Staphylococcus aureus [4].
Turning to `NC[C@@H]1O[C@H](O[C@H]2[C@@H](O)[C@H](O[C@@H]3[C@@H](O)[C@H](N)C[C@H](N)[C@H]3O[C@H]3O[C@H](CN)[C@@H](O)[C@H](O)[C@H]3N)O[C@@H]2CO)[C@H](N)[C@@H](O)[C@@H]1O` [FRAMYCETIN], the MIC in the assay on Staphylococcus aureus [1] is 64 µg/mL (≈ 104 µM); in the assay on Staphylococcus aureus [3], 64 µg/mL (≈ 104 µM); in the assay with Staphylococcus aureus [4] it was no more than 1 µg/mL.
For the compound `CN(C)[C@@H]1C(O)=C(C(N)=O)C(=O)[C@@]2(O)C(O)=C3C(=O)c4c(O)cccc4[C@@](C)(O)[C@H]3C[C@@H]12` [TETRACYCLINE], the MIC in the assay with Staphylococcus aureus [1] worked out at 64 µg/mL (≈ 144 µM); in the assay on Staphylococcus aureus [2] it was 64 µg/mL (≈ 144 µM); in the assay with Staphylococcus aureus [3] it was 64 µg/mL (≈ 144 µM); with Staphylococcus aureus [4], 0.06 µg/mL (≈ 0.135 µM).
On to `C=C[C@]1(C)C[C@@H](OC(=O)CSCCN(CC)CC)[C@]2(C)[C@H](C)CC[C@]3(CCC(=O)[C@H]32)[C@@H](C)[C@@H]1O` [TIAMULIN], for which the MIC is no less than 128 µg/mL against Staphylococcus aureus [1], 0.06 µg/mL (≈ 0.122 µM) against Staphylococcus aureus [2], 0.06 µg/mL (≈ 0.122 µM) in the assay with Staphylococcus aureus [3] and 0.06 µg/mL (≈ 0.122 µM) in the assay with Staphylococcus aureus [4].
Take `CC1=C\[C@@H](O)CC(=O)Cc2nc(co2)C(=O)N2CCC=C2C(=O)O[C@H](C(C)C)[C@H](C)/C=C/C(=O)NC\C=C\1` [VIRGINIAMYCIN FACTOR M1]: the MIC is 32 µg/mL (≈ 60.9 µM) against Staphylococcus aureus [1], 4 µg/mL (≈ 7.61 µM) against Staphylococcus aureus [2], 4 µg/mL (≈ 7.61 µM) in the assay with Staphylococcus aureus [3] and 4 µg/mL (≈ 7.61 µM) with Staphylococcus aureus [4].
As for `CC[C@@H]1CCN[C@H](C(=O)N[C@@H]([C@H]2O[C@H](SC)[C@H](O)[C@@H](O)[C@H]2O)[C@H](C)Cl)C1` [PIRLIMYCIN], the MIC worked out at 4 µg/mL (≈ 9.73 µM) against Staphylococcus aureus [1], 0.25 µg/mL (≈ 0.608 µM) against Staphylococcus aureus [2], 0.25 µg/mL (≈ 0.608 µM) against Staphylococcus aureus [3] and 0.25 µg/mL (≈ 0.608 µM) with Staphylococcus aureus [4].
For `CCC[C@@H]1C[C@@H](C(=O)N[C@@H]([C@H]2O[C@H](SC)[C@H](O)[C@@H](O)[C@H]2O)[C@H](C)Cl)N(C)C1` [CLINDAMYCIN], the values for the MIC in the assay with Staphylococcus aureus [1] and with Staphylococcus aureus [4] were 2 µg/mL (≈ 4.71 µM) and no more than 0.12 µg/mL, respectively.
Consider `C=C[C@]1(C)C[C@@H](OC(=O)CSC(C)(C)CNC(=O)[C@H](N)C(C)C)[C@]2(C)[C@H](C)CC[C@]3(CCC(=O)[C@H]32)[C@@H](C)[C@@H]1O` [VALNEMULIN], for which the MIC against Staphylococcus aureus [1] was no less than 128 µg/mL; in the assay with Staphylococcus aureus [2], 0.03 µg/mL (≈ 0.0531 µM); in the assay on Staphylococcus aureus [3], 0.03 µg/mL (≈ 0.0531 µM); with Staphylococcus aureus [4] it was 0.03 µg/mL (≈ 0.0531 µM).
Regarding `COc1cc(Cc2cnc(N)nc2N)cc(OC)c1OC` [TRIMETHOPRIM], the MIC is no less than 512 µg/mL against Staphylococcus aureus [1], no less than 512 µg/mL against Staphylococcus aureus [2], 0.5 µg/mL (≈ 1.72 µM) against Staphylococcus aureus [3] and 0.5 µg/mL (≈ 1.72 µM) in the assay with Staphylococcus aureus [4].
